Measured values reported in article PMC3433414, “Oral Administration of the Pimelic Diphenylamide HDAC Inhibitor HDACi 4b Is Unsuitable for Chronic Inhibition of HDAC Activity in the CNS In Vivo” (PLoS ONE, 2012).

Legend:
[1] = system: P-glycoprotein (Pgp, MDR1); test: Effective efflux ratio in MDR1-MDCK cells; assay type: in vitro ADME; conditions: human, pH 7.4; MDCK overexpressing MDR1
Description: The MDR1-MDCKII and wild type MDCKII cell lines (obtained from SOLVO Biotechnology) were cultured in accordance with the guidelines provided by SOLVO Biotechnology. Both wild-type MDCK and MDR1-MDCK cells were seeded at a cell density of 2.3×10^5 cells/well into 24-well Transwell plates and cultured for three days to form monolayers. Test compound was loaded into the donor compartments of the Transwell plate (24-well) bearing MDR1-MDCK or wild type MDCK monolayers. Test compound was added to either the apical or basolateral chambers of the Transwell plate assembly at a concentration of 10 µM in Hanks’ Balanced Salt Solution containing 25 mM HEPES (pH 7.4). Lucifer Yellow was added to the apical buffer in all wells and its permeation monitored to assess integrity of the cell layer. […]
After 1 h incubation at 37°C, aliquots were taken from both chambers and added to acetonitrile containing analytical internal standard (carbamazepine) in a 96-well plate. Concentrations of compound in the samples were measured by LC-MS/MS. Concentrations of LY in the samples were measured using a fluorescence plate reader.
The apparent permeability (Papp) values of test compound were determined for both the apical to basal (A>B) and basal to apical (B>A) permeation and the efflux ratio (B>A: A>B) determined in both the wild type MDCK and MDR1-MDCK cells. […]

Class IIa/HDAC8 HDACs = test: Cellular HDAC assay, Boc_Lys_TFA substrate, Jurkat E6.1 cells; assay type: cell-based; conditions: up to 50 µM
Description: Briefly, Jurkat E6.1 cells (obtained from the European Collection of Cell Cultures (ECACC)) were plated into 384 well plates at 75,000 cells/well in cellular assay buffer (RPMI without phenol red, 0.1% Fetal Bovine Serum, 10 mM HEPES, 1 mM Sodium Pyruvate). Compounds of interest were diluted in assay buffer (16-point concentration curve, 1% final DMSO) and were added to wells - unless stated otherwise in the results section - for a 2 h preincubation at 37°C prior to the addition of either 100 µM Boc_Lys_TFA or Boc_Lys_Ac. Cells were incubated for a further 3 h at 37°C, followed by the addition of a trypsin (1 mg/ml) and reference compound (Compound 26 or TSA) stop-step overnight to terminate the reaction and lyse the cells. Fluorescent counts were read the following morning on the Perkin Elmer EnVision. Z’ was 0.8 for both assays, with S:B of 19 for Boc_Lys_Ac assay, and 7 for Boc_Lys_TFA assay.
Each compound was tested in duplicate in concentration-response format on 3 separate days. For both biochemical and cellular assays, data is presented as % inhibition from maximal activity (maximal fluorescence response), which was defined as the fluorescence read in the presence of 1% DMSO, with 100% inhibition defined as the fluorescence read in the presence of substantial excess of the respective reference compounds (5 µM TSA, 50 µM Compound 26 depending on target). […]

PCP = test: Cerep binding, antagonist radioligand; conditions: 10 μM
Description: (§1) In addition to the HDAC profiling performed, we also queried 4b for any apparent potential off-target effects, which could complicate any finding of efficacy or adverse events in vivo due to ‘polypharmacy’. This was accomplished by screening against a ‘diversity panel’ of 72 binding and 29 enzyme assays, comprised of roughly equal numbers of selective central and peripheral therapeutically relevant targets (Cerep Diversity Profile). This panel included representative targets from diverse enzyme families, G protein coupled receptors, steroid nuclear receptors, voltage- and ligand-gated ion channels. While not totally inclusive, it is a useful tool for discovery compounds to assess their viability as proof of concept molecules to specifically query a particular target. 4b was initially screened at 10 µM in duplicate. The full set of results is provided as Table S1. […] This clean in vitro profile was considered acceptable to proceed to ADME and pharmacokinetic studies.

NMDA = test: Cerep binding, antagonist radioligand; conditions: 10 μM
Description: as §1

Na+ channel (site 2) = test: Cerep binding, antagonist radioligand; conditions: 10 μM
Description: as §1

M (non‐selective) = test: Cerep binding, antagonist radioligand; conditions: 10 μM
Description: as §1

D1 (h) = target: T1, D1 (h) (Homo sapiens, UniProt P21728); test: Cerep binding, antagonist radioligand; conditions: read-out: % inhibition of control specific binding
T1 construct: purchased Cerep (Diversity Profile)
Description: as §1

KATP channel = test: Cerep binding, antagonist radioligand; conditions: 10 μM
Description: as §1

opioid (non‐selective) = test: Cerep binding, antagonist radioligand; conditions: 10 μM
Description: as §1

T1 sequence (P21728 whole entry): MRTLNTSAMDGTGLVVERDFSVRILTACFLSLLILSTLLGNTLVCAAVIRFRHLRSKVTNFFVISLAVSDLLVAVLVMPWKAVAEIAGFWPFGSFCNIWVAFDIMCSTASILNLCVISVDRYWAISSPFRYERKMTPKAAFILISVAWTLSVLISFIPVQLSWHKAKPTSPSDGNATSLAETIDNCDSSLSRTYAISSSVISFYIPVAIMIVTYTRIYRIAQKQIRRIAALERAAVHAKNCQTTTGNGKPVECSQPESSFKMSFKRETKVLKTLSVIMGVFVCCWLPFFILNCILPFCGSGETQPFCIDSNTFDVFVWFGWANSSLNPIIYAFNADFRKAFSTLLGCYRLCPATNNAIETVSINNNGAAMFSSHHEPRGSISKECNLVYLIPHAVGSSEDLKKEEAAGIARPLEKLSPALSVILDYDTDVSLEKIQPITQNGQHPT

SMILES	efflux ratio at 1 h, 10 µM [1]	cellular inhibition, Class IIa/HDAC8 substrate (Class IIa/HDAC8 HDACs)	% inhibition of control specific binding (PCP)	% inhibition of control specific binding (NMDA)	% inhibition of control specific binding (Na+ channel (site 2))	% inhibition of control specific binding (M (non‐selective))	inhibition at 10 µM (D1 (h))	% inhibition of control specific binding (KATP channel)	% inhibition of control specific binding (opioid (non‐selective))
Nc1ccccc1NC(=O)CCCCCC(=O)Nc1ccccc1 [Compound 4b]	4.9	no inhibition	15%	1%	7%	13%			
O=C(CCCCCc1nc2ccccc2[nH]1)Nc1ccccc1 [Compound C1, 6-(1-H-benzo[d]imidazol-2-yl)-N-phenylhexanamide]							27%	5%	40%
